# Literature values as cited in patent US20040131981A1, “Color developing solution of silver halide color photographic photosensitive material and manufacturing method of color developing solution” (priority 2002, published 2004).
# Values joined by “and” are separate entries in the source; they are usually repeats but may differ in a detail not shown here. Equal entries are not always repeated.
# Settings: Compound I, pH buffering agent of alkali part solution
row,Compound,Pka
1,"CNCC(=O)O [Compound I-2, H3C—NH—CH2—COOH]",10.01
2,CC(N)C(=O)O (stereo not drawn) [Compound I-3],9.87
3,"NCCC(=O)O [Compound I-4, H2N—C2H4—COOH]",10.26
4,CCC(N)C(=O)O (stereo not drawn) [Compound I-5],9.66
5,CCCCC(N)C(=O)O (stereo not drawn) [Compound I-7],9.96
6,CC(C)CC(N)C(=O)O (stereo not drawn) [Compound I-8],9.78
7,NC(Cc1ccccc1)C(=O)O (stereo not drawn) [Compound I-9],9.18
8,NC(CO)C(=O)O (stereo not drawn) [Compound I-11],9.12
9,NC(CS)C(=O)O (stereo not drawn) [Compound I-13],10.28
10,CSCCC(N)C(=O)O (stereo not drawn) [Compound I-14],9.13
11,NC(CC(=O)O)C(=O)O (stereo not drawn) [Compound I-15],9.62
12,NC(CCC(=O)O)C(=O)O (stereo not drawn) [Compound I-16],9.67
13,NCC(N)C(=O)O (stereo not drawn) [Compound I-17],9.50
14,NCCCCC(N)C(=O)O (stereo not drawn) [Compound I-19],10.72 and 9.18
15,N=C(N)NCCCC(N)C(=O)O (stereo not drawn) [Compound I-20],9.08
16,"CCNCC(=O)O [Compound I-21, H5C2—NH—CH2—COOH]",10.10
17,"CCCNCC(=O)O [Compound I-22, CH3CH2CH2—NH—CH2COOH]",10.03
18,CN(C)CC(=O)O [Compound I-24],9.80
19,CCN(CC)CC(=O)O [Compound I-25],10.47
20,CC1CCNC1C(=O)O (stereo not drawn) [Compound I-26],10.68
21,CC1C(O)CNC1C(=O)O (stereo not drawn) [Compound I-27],9.58
22,NC(Cc1c[nH]c2ccccc12)C(=O)O (stereo not drawn) [Compound I-28],9.55
23,NC1(C(=O)O)CCCC1 [Compound I-29],10.31
24,NC1(C(=O)O)CCCCC1 [Compound I-30],10.13
25,NC1(C(=O)O)CCCCCC1 [Compound I-31],10.46

# Same assay, conditions: Compound II, pH buffering agent of alkali part solution
row,Compound,Pka
1,NCCN(CC(=O)O)CC(=O)O [II-25],11.05
2,"O=C(O)CNCCNCC(=O)O [II-26, HOOCH2C—NH—C2H4—NH—CH2COOH]",9.57
3,"O=C(O)CCNCCNCCC(=O)O [II-27, HOOCH4C2—NH—C2N4—NH—C2H4COOH]",9.58
4,O=C(O)CN(CCN(CC(=O)O)C1CCCCC1)CC(=O)O [II-29],10.15
5,O=C(O)CN(CCN(CC(=O)O)C1CCCCC1O)CC(=O)O (stereo not drawn) [II-30],10.38
6,O=C(O)CN(CCN(CC(=O)O)c1ccccc1)CC(=O)O [II-31],9.84
7,"CCNCCN [II-34, N-ethylethylenediamine]",10.56
8,"NCCNCCO [II-37, N-(2-hydroxyethyl)ethylenediamine]",10.12
9,CN(C)CCN [II-38],10.00
10,CCN(CC)CCN [II-39],10.02
11,CNCCNC [II-40],10.29
12,CN(C)CCN(C)C [II-44],10.13
13,"CC(N)C(C)N (stereo not drawn) [II-46, NH2—CH(CH3)—CH(CH3)—NH2]",9.97
14,"NCCCN [II-47, H2N—C3H6—NH2]",10.62
15,"NCCCCN [II-48, H2N—C4H8—NH2]",10.82 and 9.61
16,"NCCCCCN [II-49, H2N—C5H10—NH2]",10.96 and 10.02
17,NC1CCCCC1N (stereo not drawn) [II-50],9.99(cis)
18,NC1CCCCC1N (stereo not drawn) [II-51],9.89(trans)
19,NC1CCCCCC1N (stereo not drawn) [II-52],10.48
20,NCC(CN)CN [II-54],9.94 and 9.13
21,"NCCCNCCCN [II-55, H2N—C3H6—NH—C3H6—NH2]",11.70 and 10.77
22,"NCCNCCNCCN [II-56, triethylenetetramine]",9.92 and 9.20
23,"NCC(CN)CN [II-57, 1,3-diamino-2-aminomethylpropane]",9.92 and 9.20

# Same assay, conditions: Compound III, pH buffering agent of alkali part solution
row,Compound,Pka
1,O=C(O)CNCC(=O)O [III-1],9.12
2,O=C(O)CCNCCC(=O)O [III-2],10.31
3,CN(CC(=O)O)CC(=O)O [III-3],10.60
4,CC(C)(C)CCN(CC(=O)O)CC(=O)O [III-4],10.24
5,O=C(O)CN(CCS)CC(=O)O [III-5],10.79
6,O=C(O)CN(CCCO)CC(=O)O [III-6],9.24
7,O=C(O)CN(CC(=O)O)Cc1ccc(O)cc1 [III-7],11.79
8,O=C(O)CN(CC(=O)O)CP(=O)(O)O [III-8],10.76
9,O=C(O)CN(CCP(=O)(O)O)CC(=O)O [III-9],10.46
10,NCCN(CCN)CCN [III-14],9.60
11,"COCCN [III-16, CH3—O—C2H4—NH2]",9.61
12,OCCNCCO [III-17],9.00

# Same assay, conditions: PH buffering agent of alkali part solutions B1-B34, Table 3
row,Compound,pka
1,CC(N)C(=O)O (stereo not drawn) [Compound I-3],9.87 and 10.26
2,"NCCC(=O)O [Compound I-4, H2N—C2H4—COOH]",10.26
3,NC(CC(=O)O)C(=O)O (stereo not drawn) [Compound I-15],9.62
4,N=C(N)NCCCC(N)C(=O)O (stereo not drawn) [Compound I-20],9.08
5,"O[Si](O)(O)O [H2SiO2(OH)2, reference compound]",13.1
6,O=C(O)CNCC(=O)O [III-1],9.12
7,OCCNCCO [III-17],9.00
8,O=C([O-])[O-].[K+].[K+] [K2CO3 (carbonic acid)],10.33

# Same assay, conditions: pH buffering agents with pKa 5 to 9 for fixing and bleaching-fixing solution
row,Compound,pKa
1,"CCNCCN [II-34, N-ethylethylenediamine]",7.63
2,"NCCNCCO [II-37, N-(2-hydroxyethyl)ethylenediamine]",7.21
3,"NCCNCCNCCN [II-56, triethylenetetramine]",6.67
4,"NCC(CN)CN [II-57, 1,3-diamino-2-aminomethylpropane]",6.44
5,"CCN(CC)CCN [N,N-diethylethylenediamine]",7.07
6,"CN(C)CCN [N,N-dimethylethylenediamine]",6.79
7,"OCCNCCNCCO [N,N′-di(2-hydroxylethyl)ethylenediamine]",7.18
8,"CCNCCNCC [N,N′-diethylethylenediamine]",7.77
9,"CNCCNC [N,N′-dimethylethylenediamine]",7.47
10,"meso-2,3-diaminopropane",6.92
